Reference: US11970497B2, “Tricyclic AKR1C3 dependent KARS inhibitors” (Novartis AG, priority 2019, dated 2024)

What was measured:
[1] = test system: H460 (NRF2 pathway mutant cell line with high AKR1C3 expression); experiment: In vitro cell proliferation assay (CellTiter-Glo), H460; format: cell-based; conditions: Homo sapiens, NCI-H460, 72 h; H460 cells, 3 days, CellTiter-Glo, top concentration 10 μM; read-out: H460 Qualified absolute AC50
Source text: (§1) Cellular Proliferation Assay to Assess Compounds Activity in H460 (NRF2 Pathway Mutant Cell Line with High AKR1C3 Expression) and Hara (NRF2 Pathway Wild Type Cell Line with Low AKR1C3 Expression).
(§2) The cell lines A549 and H460 are NRF2 pathway mutant and specifically contain genetic alterations in KEAP1 (A549: G333C, H460: D236H) (Singh A. et al., 2006 PLoS Medicine 3(10) e420). In these cell lines the NRF2 pathway is constitutively active and these cells express high levels of NRF2 protein and NRF2 pathway target gene AKR1C3. […] They have low AKR1C3 expression.
(§3) In Vitro Cell Proliferation Assay
(§4) Day 1, for H460 800 cells/well or 40 μL of 2×10^4 cells/mL and for Hara 2000 cells/well or 40 μL of 5×10^4 cells/mL medium (RPMI-1640 supplemented with 10% fetal bovine serum and 1% penicillin/streptomycin) were seeded into 384-well tissue culture plates. Day 2, compounds were serially diluted 1:5 to generate 8 point dose response curves and added to cells for a final top concentration of 10 μM. DMSO (1%) control and MG132 (30 μM) controls are added in columns 23 and 24 respectively on each plate for positive and negative control. After incubation for 3 days at 37° C./5% CO2, 30 μl of CellTiter-Glo reagent (Promega) was added and the plates were incubated for 10 min on plate shaker. The amount of luminescence was determined using a Perkin Elmer Envision plate reader. CellTiter-Glo luminescence values of cells treated with DMSO and MG132 controls were used to normalize the data and calculate percentage activity and AC50s of compounds using the Helios Software suite.

[2] = test system: Hara (NRF2 pathway wild type cell line with low AKR1C3 expression); experiment: In vitro cell proliferation assay (CellTiter-Glo), Hara; format: cell-based; conditions: 72 h; Hara cells, 3 days, CellTiter-Glo, top concentration 10 μM; read-out: HARA Qualified absolute AC50
Source text: as §1, §2, §3, §4

CC(C)S(=O)(=O)Nc1cc(CNC(=O)N2CCC3(CC2)CC(=O)c2cc(F)ccc2N3)ccc1F [Example 23, 6′-fluoro-N-(4-fluoro-3-((1-methylethyl)sulfonamido)benzyl)-4′-oxo-3′,4′-dihydro-1′H-spiro[piperidine-4,2′-quinoline]-1-carboxamide]
AC50 [1]: 6900 nM
AC50 [2]: > 10000 nM

NC(=O)c1cc(CNC(=O)N2CCC3(CC2)CC(=O)c2cc(F)ccc2N3)ccc1F [Example 24, N-(3-carbamoyl-4-fluorobenzyl)-6′-fluoro-4′-oxo-3′,4′-dihydro-1′H-spiro[piperidine-4,2′-quinoline]-1-carboxamide]
AC50 [1]: 46 nM
AC50 [2]: 5940 nM

CCN1c2ccc(F)cc2C(=O)CC12CCN(C(=O)NCc1ccc(F)c(NCCO)c1)CC2 [Example 25, 1′-ethyl-6′-fluoro-N-(4-fluoro-3-((2-hydroxyethyl)amino)benzyl)-4′-oxo-3′,4′-dihydro-1′H-spiro[piperidine-4,2′-quinoline]-1-carboxamide]
AC50 [1]: 47 nM
AC50 [2]: 1660 nM

CCN1c2ccc(F)cc2C(=O)CC12CCN(C(=O)NCc1ccc(F)c(N)c1F)CC2 [Example 26, N-(3-amino-2,4-difluorobenzyl)-1′-ethyl-6′-fluoro-4′-oxo-3′,4′-dihydro-1′H-spiro[piperidine-4,2′-quinoline]-1-carboxamide]
AC50 [1]: 47 nM
AC50 [2]: > 10000 nM

CN1c2ccc(F)cc2C(=O)CC12CCN(C(=O)NCc1ccc(F)c(N)c1)CC2 [Example 27, N-(3-amino-4-fluorobenzyl)-6′-fluoro-1′-methyl-4′-oxo-3′,4′-dihydro-1′H-spiro[piperidine-4,2′-quinoline]-1-carboxamide]
AC50 [1]: 48 nM
AC50 [2]: > 10000 nM

CN1c2ccc(F)cc2C(=O)CC12CCN(C(=O)NCc1ccc(F)c(NCCOP(=O)(O)O)c1)CC2 [Example 28]
AC50 [1]: 52 nM
AC50 [2]: > 10000 nM

CCN1c2ccc(F)cc2C(=O)CC12CCN(C(=O)NCc1ccc(F)c(N)c1)CC2 [Example 29, N-(3-amino-4-fluorobenzyl)-1′-ethyl-6′-fluoro-4′-oxo-3′,4′-dihydro-1′H-spiro[piperidine-4,2′-quinoline]-1-carboxamide]
AC50 [1]: 54 nM
AC50 [2]: > 10000 nM

NS(=O)(=O)c1cc(CNC(=O)N2CCC3(CC2)CC(=O)c2cc(F)ccc2N3)ccc1F [Example 30, 6′-fluoro-N-(4-fluoro-3-sulfamoylbenzyl)-4′-oxo-3′,4′-dihydro-1′H-spiro[piperidine-4,2′-quinoline]-1-carboxamide]
AC50 [1]: 61 nM
AC50 [2]: > 10000 nM

O=C1CC2(CCN(C(=O)NCc3ccccc3)CC2)Nc2ccc(F)cc21 [Example 33, N-benzyl-6′-fluoro-4′-oxo-3′,4′-dihydro-1′H-spiro[piperidine-4,2′-quinoline]-1-carboxamide]
AC50 [1]: 75 nM
AC50 [2]: 1190 nM

O=C1CC2(CCN(C(=O)NCc3cccc(-c4cnco4)c3)CC2)Nc2c(F)cc(F)cc21 [Example 35, 6′,8′-difluoro-N-(3-(oxazol-5-yl)benzyl)-4′-oxo-3′,4′-dihydro-1′H-spiro[piperidine-4,2′-quinoline]-1-carboxamide]
AC50 [1]: 77 nM
AC50 [2]: 2720 nM

NC(=O)c1coc(CNC(=O)N2CCC3(CC2)CC(=O)c2cc(F)cc(F)c2N3)c1 [Example 38, N-((4-carbamoylfuran-2-yl)methyl)-6′,8′-difluoro-4′-oxo-3′,4′-dihydro-1′H-spiro[piperidine-4,2′-quinoline]-1-carboxamide]
AC50 [1]: 82 nM
AC50 [2]: > 10000 nM

O=C1CC2(CCN(C(=O)NCc3ccc(O)cc3)CC2)Nc2ccc(F)cc21 [Example 39, 6′-fluoro-N-(4-hydroxybenzyl)-4′-oxo-3′,4′-dihydro-1′H-spiro[piperidine-4,2′-quinoline]-1-carboxamide]
AC50 [1]: 82 nM
AC50 [2]: > 10000 nM

CN1c2ccc(F)cc2C(=O)CC12CCN(C(=O)NCc1ccc(F)c(C(N)=O)c1)CC2 [Example 41, N-(3-carbamoyl-4-fluorobenzyl)-6′-fluoro-1′-methyl-4′-oxo-3′,4′-dihydro-1′H-spiro[piperidine-4,2′-quinoline]-1-carboxamide]
AC50 [1]: 93 nM
AC50 [2]: > 10000 nM

CN1c2ccc(F)cc2C(=O)CC12CCN(C(=O)NCc1ccc(F)c(N)c1F)CC2 [Example 42, N-(3-amino-2,4-difluorobenzyl)-6′-fluoro-1′-methyl-4′-oxo-3′,4′-dihydro-1′H-spiro[piperidine-4,2′-quinoline]-1-carboxamide]
AC50 [1]: 94 nM
AC50 [2]: > 10000 nM

O=C1CC2(CCN(C(=O)NCc3ccc(F)cc3O)CC2)Nc2ccc(F)cc21 [Example 43, 6′-fluoro-N-(4-fluoro-2-hydroxybenzyl)-4′-oxo-3′,4′-dihydro-1′H-spiro[piperidine-4,2′-quinoline]-1-carboxamide]
AC50 [1]: 99 nM
AC50 [2]: > 10000 nM

CN1c2ccc(F)cc2C(=O)CC12CCN(C(=O)NCc1ccc(F)c(NC[C@H](O)CO)c1)CC2 [Example 45, (S)—N-(3-((2,3-dihydroxypropyl)amino)-4-fluorobenzyl)-6′-fluoro-1′-methyl-4′-oxo-3′,4′-dihydro-1′H-spiro[piperidine-4,2′-quinoline]-1-carboxamide]
AC50 [1]: 100 nM
AC50 [2]: > 10000 nM

O=C1CC2(CCN(C(=O)NCc3ccoc3)CC2)Nc2c(F)cc(F)cc21 [Example 46, 6′,8′-difluoro-N-(furan-3-ylmethyl)-4′-oxo-3′,4′-dihydro-1′H-spiro[piperidine-4,2′-quinoline]-1-carboxamide]
AC50 [1]: 105 nM
AC50 [2]: 2940 nM

O=C1CC2(CCN(C(=O)NCc3cc[nH]n3)CC2)Nc2ccc(F)cc21 [Example 47, N-((1H-pyrazol-3-yl)methyl)-6′-fluoro-4′-oxo-3′,4′-dihydro-1′H-spiro[piperidine-4,2′-quinoline]-1-carboxamide]
AC50 [1]: 106 nM
AC50 [2]: > 10000 nM

O=C(NCCO)c1cc(CNC(=O)N2CCC3(CC2)CC(=O)c2cc(F)ccc2N3)ccc1F [Example 48, 6′-fluoro-N-(4-fluoro-3-((2-hydroxyethyl)carbamoyl)benzyl)-4′-oxo-3′,4′-dihydro-1′H-spiro[piperidine-4,2′-quinoline]-1-carboxamide]
AC50 [1]: 108 nM
AC50 [2]: 7960 nM

Nc1cc(F)c(CNC(=O)N2CCC3(CC2)CC(=O)c2cc(F)ccc2N3)cc1F [Example 49, N-(4-amino-2,5-difluorobenzyl)-6′-fluoro-4′-oxo-3′,4′-dihydro-1′H-spiro[piperidine-4,2′-quinoline]-1-carboxamide]
AC50 [1]: 113 nM
AC50 [2]: > 10000 nM

CCN1c2ccc(F)cc2C(=O)CC12CCN(C(=O)NCc1cc(N)c(F)cc1F)CC2 [Example 50, N-(5-amino-2,4-difluorobenzyl)-1′-ethyl-6′-fluoro-4′-oxo-3′,4′-dihydro-1′H-spiro[piperidine-4,2′-quinoline]-1-carboxamide]
AC50 [1]: 122 nM
AC50 [2]: > 10000 nM

O=C1CC2(CCN(C(=O)NCc3ccc(F)cc3OCC(F)(F)F)CC2)Nc2ccc(F)cc21 [Example 51, 6′-fluoro-N-(4-fluoro-2-(2,2,2-trifluoroethoxy)benzyl)-4′-oxo-3′,4′-dihydro-1′H-spiro[piperidine-4,2′-quinoline]-1-carboxamide]
AC50 [1]: 128 nM
AC50 [2]: 4750 nM

CCNc1cc(F)ccc1CNC(=O)N1CCC2(CC1)CC(=O)c1cc(F)ccc1N2C [Example 52, N-(2-(ethylamino)-4-fluorobenzyl)-6′-fluoro-1′-methyl-4′-oxo-3′,4′-dihydro-1′H-spiro[piperidine-4,2′-quinoline]-1-carboxamide]
AC50 [1]: 139 nM
AC50 [2]: > 10000 nM

O=C1CC2(CCN(C(=O)NCc3cccc4c3OCO4)CC2)Nc2c(F)cc(F)cc21 [Example 53, N-(benzo[d][1,3]dioxol-4-ylmethyl)-6′,8′-difluoro-4′-oxo-3′,4′-dihydro-1′H-spiro[piperidine-4,2′-quinoline]-1-carboxamide]
AC50 [1]: 141 nM
AC50 [2]: 2020 nM

O=C1CC2(CCN(C(=O)NCc3ccc(O)cc3)CC2)Nc2c(F)cc(F)cc21 [Example 54, 6′,8′-difluoro-N-(4-hydroxybenzyl)-4′-oxo-3′,4′-dihydro-1′H-spiro[piperidine-4,2′-quinoline]-1-carboxamide]
AC50 [1]: 3 nM
AC50 [2]: 9850 nM

CN1c2ccc(F)cc2C(=O)CC12CCN(C(=O)NCc1ccc(F)c(NS(C)(=O)=O)c1)CC2 [Example 55, 6′-fluoro-N-(4-fluoro-3-(methylsulfonamido)benzyl)-1′-methyl-4′-oxo-3′,4′-dihydro-1′H-spiro[piperidine-4,2′-quinoline]-1-carboxamide]
AC50 [1]: 150 nM
AC50 [2]: 5170 nM

Nc1ccc(CNC(=O)N2CCC3(CC2)CC(=O)c2cc(F)ccc2N3)cc1F [Example 56, N-(4-amino-3-fluorobenzyl)-6′-fluoro-4′-oxo-3′,4′-dihydro-1′H-spiro[piperidine-4,2′-quinoline]-1-carboxamide]
AC50 [1]: 166 nM
AC50 [2]: > 10000 nM
